Laboratory results as given in paper PMC12261321, “Inhibitors of the Bacterioferritin Ferredoxin Complex Dysregulate Iron Homeostasis and Kill and Biofilm-Embedded Cells” (ACS Infectious Diseases, 2025).
“And” between values parts separate entries of the source, which are not always exact repeats. Equal values may be shown once.

Key:
[1] = system: A. baumannii 5075; assay: Checkerboard assay; type: cell-based
Procedure: To carry out the serial dilution from the highest compound concentration, a 150 μ L solution of higher concentration compound or antibiotic was mixed with 150 μ L of cell suspension containing […] Th e 96 well plate was in cubated for 20 hat 35 °C with continuous orbital shaking (205 cpm) in an Epoch2 microplate reader (BioTek), monitoring the growth by following the OD600. […] All assays were p erfo rmed in three biological replicates, each with three […] replicates. Checkerboard Assay. […] CFU/mL. […] in the vertical and hori zontal direction, respectivel y. Bacterial suspensions were […] escrib ed above fo r the MIC determination and added to the plates. […] The 96-well […] cubated for 20 h at 35 °C with continuous orbital shaking (205 cpm) in an Epoch2 microplate reader (BioTek), monitoring the growth by following the OD600. The MIC values of inhibitor and antibiotic were obtained from the corresponding row or column which contained only one component, whereas the remaining rows and columns were utilized for calculating the fractional inhibitory concentration index (FIC) with the aid of equation […] = […]2 Time Kill Assays. Time-kill assays were performed with A. baumannii 507 5 by the broth macro- dilution method […] An overnight culture was diluted to approximately 5 x10^5 CFU/mL in fresh […] media. […] DMSO, or by the addition of antibiotic dissolved in water and a small volume of DMSO to produce the desired S7

[2] = system: A. baumannii 5075; assay: Time kill assays; type: cell-based; details: for rate of killing: each agent at its MIC
Procedure: dissolved in DMSO, such that the resultant solution had the highest concentration of compound or antibiotic tested and 1.5% DMSO. To carry out the serial dilution from the highest compound concentration, a 150 μ L solution of higher concentration compound or antibiotic was mixed with 150 μ L of cell suspension containing 1.5% DMSO in the wells of a 96 well plate.
Th e 96 well plate was in cubated for 20 hat 35 °C with continuous orbital shaking (205 cpm) in an Epoch2 microplate reader (BioTek), monitoring the growth by […]
following the OD600. […]
Time Kill Assays. Time-kill assays were performed with A. baumannii 507 5 by the broth macro- dilution method in M63- medium containing 1.5% DMSO. An overnight culture was diluted to approximately 5 x10^5 CFU/mL in fresh M63 media. The test solutions were prepared by adding compound (KM-5- 35, or KM-5- 25) dissolved in DMSO to 5 mL of diluted cell suspension to yield a solution of the desired compound concentration and 1.5% DMSO, or by the addition of antibiotic dissolved in water and a small volume of DMSO to produce the desired […]
antibiotic concentration and 1.5% DMSO. Controls containing the diluted cell suspension, 1.5% DMSO but no test compounds were also prepared. […]
800 µL of the suspension was lay ered onto 700 µL of chilled silicon oil contained in 1.5 mL Eppendo rf tubes and then centrifuged at 4 °C ( 900 x g) for 10 min, then again at 16,200 x g for 5 min to allow pass ag e of the cell suspension through the silicon oil layer. The aqueous and oil layers were removed, and the cell pellet was washed twice in PBS (800 μ L), each time transferring the cell suspension to a new Eppendorf tube and then centrifuging at 16,200 x g. The cell pellet was lysed in 800 µL methanol by vortexing followed by 10 min incubationat room temperatur e. The lysate suspension was pelleted, the supernatant was transferred to a new Eppendorf tube and then placed into a vacuum concentrator (Eppendorf 5301 Vacufuge) to evaporate the methanol (4 h). The dried

Row | Compound | FIC ([1]; KM-5–25 with colistin, 5075 (Figure S3)) | FIC ([1]; KM-5–25 with imipenem, 5075 (Figure S3)) | time kill outcome ([2]; compound at 1 × MIC) | time kill outcome ([2]; compound at 1.5 × MIC (limit of aqueous solubility)) | reduction of viable cells (CFU/mL) relative to the inoculum ([2]; compound at the MIC) | time to approximately 3log10 reduction of viable cells ([2]; compound at the MIC) | rate of killing [2] | FIC ([1]; KM-5–35 with ceftazidime, 5075) | FIC ([1]; KM-5–35 with ciprofloxacin, 5075) | FIC ([1]; KM-5–35 with meropenem, 5075) | FIC ([1]; KM-5–35 with tobramycin, 5075) | MIC alone ([1]; agent alone, 5075, KM-5–35 14 μg/mL = 40 μM) [µg/mL] | MIC of KM-5–35 in combination ([1]; in combination with ceftazidime, 5075) [µg/mL] | MIC of KM-5–35 in combination ([1]; in combination with ciprofloxacin, 5075) [µg/mL] | MIC of KM-5–35 in combination ([1]; in combination with imipenem, 5075) [µg/mL] | MIC of KM-5–35 in combination ([1]; in combination with tobramycin, 5075) [µg/mL]
1 | O=C1NC(=O)c2c(NCc3cc(Cl)ccc3O)cccc21 [KM-5-25, 4-((5-Chloro-2-hydroxybenzyl)amino)isoindoline-1,3-dione] | 0.36 and 0.38 | 0.63 | cell growth is observed at later hours | bactericidal | approximately 3 log10 | approximately 3 h | slower than that observed with KM-5–35 | – | – | – | – | – | – | – | – | –
2 | O=C1NC(=O)c2c(NCc3cc(Br)ccc3O)cccc21 [KM-5-35, 4-((5-Bromo-2-hydroxybenzyl)amino)isoindoline-1,3-dione] | – | – | bactericidal | – | > 3 log10 | – | faster than meropenem but slower than colistin | 0.50 | 0.53 | 0.50 | 0.50 | 14 | 7 | 7 | 3.5 | 7
